Measured values from patent publication US5126326A (Bio-Mega, Inc., priority 1989, dated 1992).
Counter-ions that a name gives are not always drawn. *1 amine or outer side, *2 acyl side, *3 side chain or, on linkers, in order; H or OH if unused. Where a SMILES comes first, the peptide text is derived from it. [ ]: non-standard residue; d: D form. The star is where a group is joined. ACHPA = O=C(C[C@H](O)[C@H](CC1CCCCC1)N[*:1])[*:2]; Carboxymethyl = O=C(O)C*; X1 = O=C(C*)OCc1ccccc1; Boc = CC(C)(C)OC(=O)*

Target: HIV protease (Human immunodeficiency virus type 1 group M subtype B, UniProt P03366)
Experiment: biochemical
Protocol: Recombinant HIV Protease HPLC Assay:
The enzyme was stored as 10 μL aliquots at -70° C. The aliquots were diluted to 1/10th of the original concentration with buffer prior to use (enzyme working solution).
The substrate was made into 10 mM stock in DMSO and stored at -20° C. Prior to use, the stock was diluted with buffer to give a 400 μM solution substrate working solution.
Buffer: 2-(4-Morpholino)ethanesulfonic acid (50 mM), NaCl (25 mM) and EDTA (5 mM) was dissolved in distilled H2 O (90 mL) and the solution was adjusted to pH6 with concentrated aqueous NaOH. The latter solution was diluted to 100 mL with H2 O to give the buffer.
(2) The assay mixture was prepared by mixing 10 μL of the substrate working solution, 0.5 μL of the solution of the test compound in DMSO from step 1, and 10 μL of the enzyme working solution. (3) The assay mixture was incubated at 37° C. for 1 h. (4) The reaction was quenched by adding 100 μL of 2% aqueous TFA. […] Elution was monitored at 210 nm. (6) A control which was the assay mixture without the test compound, was subjected simultaneously to steps 3 to 5.
Inhibition Studies: Cleavage products and remaining parent substrate were quantified by either peak height or by integration of the appropriate HPLC peaks. Substrate conversion was calculated using the following relationship: [formula] Enzyme inhibition of the test compound was calculated as follows: [formula]
The percent inhibition of the enzyme was determined for a minimum of three different concentrations of the test compound. Thereafter, the IC50 was determined graphically by plotting the percent inhibition of the substrate against the concentration of the test compound.

In order of falling IC50:
1. CC(C)C[C@H](NC(=O)C[C@H](O)[C@H](CC1CCCCC1)NC(=O)[C@H](Cc1ccccc1)NC(=O)[C@H](Cc1ccc(OCC(=O)O)cc1)NC(=O)OC(C)(C)C)C(=O)N[C@@H](Cc1ccccc1)C(N)=O [Example 5, Boc-Tyr(O-AcOH)-Phe-ACHPA-Leu-Phe-NH2] (Boc-Y(Carboxymethyl)F[ACHPA]LF-NH2)  1000 nM
2. CC(C)C[C@H](NC(=O)C[C@H](O)[C@H](CC1CCCCC1)NC(=O)[C@@H](NC(=O)[C@H](Cc1ccc(OCC(=O)OCc2ccccc2)cc1)NC(=O)OC(C)(C)C)C(C)C)C(=O)N[C@@H](Cc1ccccc1)C(N)=O [Example 1]  70 nM
3. CC(C)C[C@H](NC(=O)C[C@H](O)[C@H](CC1CCCCC1)NC(=O)[C@@H](NC(=O)[C@H](Cc1ccc(OCC(=O)O)cc1)NC(=O)OC(C)(C)C)C(C)C)C(=O)N[C@@H](Cc1ccccc1)C(N)=O [Example 3, Boc-Tyr(O-AcOH)-Val-ACHPA-Leu-Phe-NH2] (Boc-Y(Carboxymethyl)V[ACHPA]LF-NH2)  52 nM
4. CC(C)C[C@H](NC(=O)C[C@H](O)[C@H](CC1CCCCC1)NC(=O)[C@@H](NC(=O)[C@@H](N)Cc1ccc(OCC(=O)O)cc1)C(C)C)C(=O)N[C@@H](Cc1ccccc1)C(N)=O [Example 4, H-Tyr(O-AcOH)-Val-ACHPA-Leu-Phe-NH2.HCl] (H-Y(Carboxymethyl)V[ACHPA]LF-NH2)  10 nM
5. CC(C)C[C@H](NC(=O)C[C@H](O)[C@H](CC1CCCCC1)NC(=O)[C@@H](NC(=O)[C@@H](N)Cc1ccc(OCC(=O)OCc2ccccc2)cc1)C(C)C)C(=O)N[C@@H](Cc1ccccc1)C(N)=O [Example 2, H-Tyr(O-AcOBzl)-Val-ACHPA-Leu-Phe-NH2.HCl] (H-Y(X1)V[ACHPA]LF-NH2)  5 nM
